Drawing on patent US12509459B2, “Inhibitors of NLRP3 inflammasome” (BioAge Labs, Inc., priority 2024, dated 2025), this text covers IC50 for 45 compounds.

The structures appear in SMILES notation.

NLRP3, sequence (Q96P20 whole entry): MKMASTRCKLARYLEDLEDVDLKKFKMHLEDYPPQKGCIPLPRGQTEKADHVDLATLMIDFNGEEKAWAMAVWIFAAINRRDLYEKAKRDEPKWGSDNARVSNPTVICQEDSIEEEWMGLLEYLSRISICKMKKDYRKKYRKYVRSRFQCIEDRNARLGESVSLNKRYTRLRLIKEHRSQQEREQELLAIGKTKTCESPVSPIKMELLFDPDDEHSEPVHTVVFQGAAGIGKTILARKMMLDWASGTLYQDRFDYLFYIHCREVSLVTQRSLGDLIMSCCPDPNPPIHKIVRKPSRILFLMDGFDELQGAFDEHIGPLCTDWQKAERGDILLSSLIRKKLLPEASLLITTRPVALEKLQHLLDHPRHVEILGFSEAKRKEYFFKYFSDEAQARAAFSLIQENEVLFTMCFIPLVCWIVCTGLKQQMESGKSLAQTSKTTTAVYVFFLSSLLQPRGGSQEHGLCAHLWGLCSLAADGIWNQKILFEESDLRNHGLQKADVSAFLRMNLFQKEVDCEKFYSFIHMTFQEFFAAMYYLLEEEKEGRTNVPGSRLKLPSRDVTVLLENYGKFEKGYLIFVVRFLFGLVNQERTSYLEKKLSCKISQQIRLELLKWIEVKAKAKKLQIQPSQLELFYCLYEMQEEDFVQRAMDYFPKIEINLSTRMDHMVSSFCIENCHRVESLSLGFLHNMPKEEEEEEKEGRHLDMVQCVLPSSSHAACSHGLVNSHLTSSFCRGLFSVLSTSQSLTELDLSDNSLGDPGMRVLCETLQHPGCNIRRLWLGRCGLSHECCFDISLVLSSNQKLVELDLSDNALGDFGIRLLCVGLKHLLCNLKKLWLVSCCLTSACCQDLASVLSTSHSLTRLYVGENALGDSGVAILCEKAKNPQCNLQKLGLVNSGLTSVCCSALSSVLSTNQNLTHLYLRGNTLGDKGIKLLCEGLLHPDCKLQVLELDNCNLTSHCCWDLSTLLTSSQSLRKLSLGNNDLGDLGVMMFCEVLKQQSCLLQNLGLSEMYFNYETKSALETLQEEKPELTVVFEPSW

The target of this assay is NLRP3 (Homo sapiens, UniProt Q96P20). As to the kind of experiment: THP-1 cell-based NLRP3 activation assay. The settings on record: PMA-differentiated THP-1 cells, LPS 100 ng/mL then 10 μM nigericin. More on the design: endogenous in cells; host or cells: THP-1 cells (PMA-differentiated, LPS-primed, nigericin-stimulated). The protocol:
THP-1 cells are cultured in complete media (CM) until they reach logarithmic growth and achieve a viability >90%. CM is composed of RPMI-1640 (+Glutamax)/10% fetal bovine serum/55 μM β-mercaptoethanol/pen/strep. Cells are spun down and resuspended to 1,000,000 cells/mL in CM containing either 20 nM or 500 nM PMA. 150,000 cells (150 μL) are then added to each well of a 96-well TC plate and incubated for either 24 hr or 3 hr, respectively, in a standard cell culture incubator (37° C.; 5% CO2). After this incubation, the plate is tilted and media carefully removed. 200 μL of CM containing 100 ng/mL LPS is then added to the wells and the cells incubated an additional 3 hrs. The media is again removed and replaced with Opti-Mem medium containing pre-determined dilutions of test compounds in replicate wells. After a 30 min incubation, 10 μM nigericin (final concentration) in Opti-Mem medium with the corresponding concentration of compound is added to the wells for an additional 1 hr. Positive control wells contain 10 μM nigericin in Opti-Mem in the absence of test compound, while negative control wells contain Opti-Mem only. […] Once supernatants are removed, the relative viability of adherent cells in the 96-well TC plate are determined using a CellTiter-Glo® luminescent cell viability assay (Promega).
Take `CCOc1cc(C(=O)N(C[C@@H](C)O)[C@H](C)c2cnc(C)c3cn[nH]c23)ccc1-c1cccc(F)c1` [Compound 058]: the IC50 (usually the point on the concentration scale where inhibition reaches its midpoint) was below 100 nM.
The value for `CCOc1cc(C(=O)N(C[C@H](C)O)[C@H](C)c2cnc(C)c3cn[nH]c23)ccc1-c1cccc(F)c1` [Compound 059] was 1000 to 15000 nM; that for `CCOc1cc(C(=O)N(C[C@@H](C)O)[C@@H](C)c2cnc(C)c3cn[nH]c23)ccc1-c1cccc(F)c1` [Compound 060] was above 15000 nM; that for `CCOc1cc(C(=O)N(C[C@H](C)O)[C@@H](C)c2cnc(C)c3cn[nH]c23)ccc1-c1cccc(F)c1` [Compound 061] was above 15000 nM.
The value for `CCOc1cc(C(=O)N(CC(C)(C)O)C(C)c2cnc(C)c3cn[nH]c23)ccc1-c1cccc(F)c1` (stereo not drawn) [Compound 062] was below 100 nM.
On to `CCOc1cc(C(=O)N(C)[C@H](CCNCCF)c2cncc3cn[nH]c23)ccc1-c1cccc(F)c1` [Compound 063], for which the IC50 is below 100 nM.
Turning to `CCOc1cc(C(=O)N(C)[C@H](CCN(CCF)CCF)c2cncc3cn[nH]c23)ccc1-c1cccc(F)c1` [Compound 064], the IC50 was below 100 nM.
To `CCOc1cc(C(=O)N(C)[C@H](c2cnc(C)c3cn[nH]c23)C2CN(C)C2)ccc1-c1cccc(F)c1` [Compound 065] belongs below 100 nM; to `CCOc1cc(C(=O)N(C)C(CCN(C)CC)c2cncc3cn[nH]c23)ccc1-c1cccc(F)c1` (stereo not drawn) [Compound 066], below 100 nM; to `CCOc1cc(C(=O)N(C)[C@H](CCN(C)CCF)c2cncc3cn[nH]c23)ccc1-c1cccc(Cl)c1` [Compound 067], below 100 nM.
In turn, `CCOc1cc(C(=O)N(C)[C@H](CCN(C)C)c2cnc(CO)c3cn[nH]c23)ccc1-c1cccc(Cl)c1` [Compound 068] came in with an IC50 below 100 nM.
On to `CCOc1cc(C(=O)N(C)[C@H](CCN2CC(F)C2)c2cncc3cn[nH]c23)ccc1-c1cccc(F)c1` [Compound 070], for which the 50% inhibitory concentration (IC50) was below 100 nM.
To `CCOc1cc(C(=O)N(C)[C@@H](c2cnc(C)c3cn[nH]c23)C2CN(C)C2)ccc1-c1cccc(F)c1` [Compound 071] belongs below 100 nM; to `CCOc1cc(C(=O)N(C)[C@H](c2cnc(C)c3cn[nH]c23)C2CNC2)ccc1-c1cccc(F)c1` [Compound 072], below 100 nM.
For `CN(C)CC[C@H](c1cncc2cn[nH]c12)N(C)C(=O)c1ccc(-c2ccccc2)c(OC2CC2)c1` [Compound 073], the concentration for half-maximal inhibition (IC50) was below 100 nM.
The value for `CCOc1cc(C(=O)N(C)[C@H](CCN(C)C)c2cnc(C)c3cn[nH]c23)ccc1-c1ccccc1` [Compound 074] was below 100 nM; that for `CCOc1cc(C(=O)N(C)[C@H](CCN(C)C)c2cnc(C)c3cn[nH]c23)ccc1-c1cccc(F)c1` [Compound 075] was below 100 nM.
To `CCOc1cc(C(=O)N(C)[C@H](CCN(C)C)c2cnc(C)c3cn[nH]c23)ccc1-c1cccc(Cl)c1` [Compound 076] belongs below 100 nM; to `CCOc1cc(C(=O)N(C)[C@H](CCN2CCC2)c2cncc3cn[nH]c23)ccc1-c1cccc(F)c1` [Compound 077], below 100 nM; to `CCOc1cc(C(=O)N(C)[C@@H](c2cnc(C)c3cn[nH]c23)C2CNC2)ccc1-c1cccc(F)c1` [Compound 078], below 100 nM.
To `CCOc1cc(C(=O)N(C)[C@@H](c2cncc3cn[nH]c23)C2CN(C)C2)ccc1-c1cccc(F)c1` [Compound 079] belongs below 100 nM.
Compound `C=CC(=O)NCC[C@H](c1cncc2cn[nH]c12)N(C)C(=O)c1ccc(-c2cccc(F)c2)c(OCC)c1` [Compound 080] registered a 50% inhibitory concentration (IC50) below 100 nM.
For the compound `CCOc1cc(C(=O)N(C)[C@@H](c2cncc3cn[nH]c23)[C@@H]2CCN(C)C2)ccc1-c1cccc(F)c1` [Compound 081], the 50% inhibitory concentration (IC50) was below 100 nM.
To `CCOc1cc(C(=O)N(C)[C@@H](c2cncc3cn[nH]c23)[C@H]2CCN(C)C2)ccc1-c1cccc(F)c1` [Compound 082] belongs below 100 nM; to `CCOc1cc(C(=O)N(C)[C@H](CCN(C)C)c2cnc(C)c3cn[nH]c23)ccc1-c1cc(Cl)cc(Cl)c1` [Compound 083], below 100 nM; to `CCOc1cc(C(=O)N(C)[C@H](CCN(C)C)c2cnc(C)c3cn[nH]c23)ccc1-c1cccc(C)c1` [Compound 084], below 100 nM.
To `CCOc1cc(C(=O)N(C)[C@H](CCN2C[C@@H](F)[C@@H](F)C2)c2cncc3cn[nH]c23)ccc1-c1cccc(F)c1` [Compound 086] belongs below 100 nM.
The value for `CCOc1cc(C(=O)N(C)[C@H](CCN(C)C)c2cncc3cn[nH]c23)ccc1-c1cc(Cl)cc(Cl)c1` [Compound 090] was below 100 nM; that for `CCOc1cc(C(=O)N(C)[C@H](CCN(C)C)c2cncc3cn[nH]c23)ccc1-c1cccc(C)c1` [Compound 091] was below 100 nM.
`CCOc1cc(C(=O)N(C)[C@H](c2cncc3cn[nH]c23)C2CNC2)ccc1-c1cccc(F)c1` [Compound 092]: the IC50 was 100 to 500 nM.
`CCOc1cc(C(=O)N(C)[C@H](CCN2C[C@@H](F)[C@H](F)C2)c2cncc3cn[nH]c23)ccc1-c1cccc(F)c1` [Compound 093] registered an IC50 below 100 nM.
The value for `CCOc1cc(C(=O)N(C)[C@H](CCN(C)CC(F)F)c2cncc3cn[nH]c23)ccc1-c1cccc(F)c1` [Compound 094] was below 100 nM; that for `CCOc1cc(C(=O)N(C)[C@H](CCN(C)CCF)c2cncc3cn[nH]c23)ccc1-c1cccc(F)c1` [Compound 095] was below 100 nM; that for `CCOc1cc(C(=O)N(C)[C@@H](c2cncc3cn[nH]c23)C2CNC2)ccc1-c1cccc(F)c1` [Compound 097] was below 100 nM.
The value for `CCOc1cc(C(=O)N(C)[C@H](CCN(C)C)c2cncc3cn[nH]c23)ccc1-c1cccc(Cl)c1` [Compound 098] was below 100 nM.
To `CCOc1cc(C(=O)N(C)[C@H](CCN(C)C)c2cnc(CO)c3cn[nH]c23)ccc1-c1cccc(F)c1` [Compound 099] belongs below 100 nM.
`CCOc1cc(C(=O)N(C)[C@H](CCN2CCC(F)(F)C2)c2cncc3cn[nH]c23)ccc1-c1cccc(F)c1` [Compound 100] yielded an IC50 below 100 nM.
In the case of `CCOc1cc(C(=O)N(C)[C@H](CCN2CC(F)(F)C2)c2cncc3cn[nH]c23)ccc1-c1cccc(F)c1` [Compound 101], the IC50 is below 100 nM.
To `CN(C)CC[C@H](c1cncc2cn[nH]c12)N(C)C(=O)c1ccc(-c2cccc(Cl)c2)c(OC2CC2)c1` [Compound 102] belongs below 100 nM; to `CCOc1cc(C(=O)N(C)[C@H](CCN(CC)CC)c2cncc3cn[nH]c23)ccc1-c1cccc(F)c1` [Compound 103], below 100 nM; to `CCOc1cc(C(=O)N(C)[C@H](CCN2CCCC2)c2cncc3cn[nH]c23)ccc1-c1cccc(F)c1` [Compound 104], below 100 nM.
To `CCOc1cc(C(=O)N(CCN2C[C@H](F)C[C@H](F)C2)Cc2cncc3cn[nH]c23)ccc1-c1cccc(F)c1` [Compound 106] belongs below 100 nM.
The value for `CCOc1cc(C(=O)N(CCN2C[C@@H](F)[C@H](F)C2)Cc2cncc3cn[nH]c23)ccc1-c1cccc(F)c1` [Compound 107] was below 100 nM; that for `CCOc1cc(C(=O)N(CCN2C[C@@H](F)[C@@H](F)C2)Cc2cncc3cn[nH]c23)ccc1-c1cccc(F)c1` [Compound 108] was below 100 nM; that for `CCOc1cc(C(=O)N(CCN2CCC(F)C2)Cc2cncc3cn[nH]c23)ccc1-c1cccc(F)c1` (stereo not drawn) [Compound 109] was below 100 nM.
